Results published in ChEMBL document CHEMBL3046441, “Importance of physicochemical properties for the design of new pesticides” (J Agric Food Chem, 2011).

Key:
[1] = Apparent hydrophobicity, log D of the compound in Octanol-buffer; format: physicochemical; details: for logD: octanol/buffer; for logD(app): octanol/water
[2] = Dissociation constant, pKa of the compound at pH 7.3; format: physicochemical
[3] = tested on: Periplaneta americana; test: Toxic effect in Periplaneta americana (American cockroach) assessed as paralyzed insects after 24 hr of abdomen compound injection by insecticidal assay; format: functional
[4] = target: T1, Nicotinic acetylcholine receptor alpha8 subunit (Periplaneta americana) (UniProt H6TY12); test: Neuroblocking activity in Periplaneta americana (American cockroach) nicotinic acetylcholine receptor in abdominal fifth and sixth ganglia nerve assessed as neuroblocking concentration by neurophysiological test
T1 sequence (whole entry): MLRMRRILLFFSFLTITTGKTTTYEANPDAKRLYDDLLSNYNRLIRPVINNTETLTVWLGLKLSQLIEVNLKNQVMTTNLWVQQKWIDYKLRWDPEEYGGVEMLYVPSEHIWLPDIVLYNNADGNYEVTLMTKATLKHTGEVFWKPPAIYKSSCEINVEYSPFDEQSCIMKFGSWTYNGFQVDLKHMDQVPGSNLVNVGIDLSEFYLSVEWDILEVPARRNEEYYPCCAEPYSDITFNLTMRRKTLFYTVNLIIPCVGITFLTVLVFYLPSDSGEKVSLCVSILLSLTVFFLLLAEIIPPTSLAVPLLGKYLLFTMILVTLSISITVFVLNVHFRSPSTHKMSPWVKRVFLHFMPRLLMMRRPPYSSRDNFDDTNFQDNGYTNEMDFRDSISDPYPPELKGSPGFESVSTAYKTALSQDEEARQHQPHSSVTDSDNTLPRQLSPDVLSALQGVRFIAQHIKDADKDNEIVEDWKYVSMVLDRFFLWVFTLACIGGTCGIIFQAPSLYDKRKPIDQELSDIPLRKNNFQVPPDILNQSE

[5] = Hydrophobicity, log P of the compound in octanol-water by shaking-flask method; format: physicochemical

SMILES | logD [1] | pKa [2] | further results
C[C@@H]1C[C@H]2[C@@H]3CCC4=CC(=O)C=C[C@]4(C)[C@@]3(F)[C@@H](O)C[C@]2(C)[C@@]1(O)C(=O)CO [DEXAMETHASONE] | 2.01 | 0 | –
Cc1c(N(C)C)c(=O)n(-c2ccccc2)n1C [AMINOPYRINE] | – | 0 | –
O=[N+]([O-])NC1=NCCN1Cc1ccc(Cl)nc1 [IMIDACLOPRID] | 0.59 | 0 | –
O=[N+]([O-])/N=c1\sccn1Cc1cnc(Cl)s1 | – | – | log(1/MLD) [3]: 8.85; log(1/BC) [4]: 5.79
O=[N+]([O-])/C=C1\NCCN1Cc1ccc(Cl)nc1 | – | – | log(1/MLD) [3]: 10.19; log(1/BC) [4]: 5.02
O=C1NC(=O)C(c2ccccc2)(c2ccccc2)N1 [PHENYTOIN] | 2.26 | – | –
O=c1ccc2ccccc2o1 [COUMARIN] | – | 0 | –
COc1ccc(CCN(C)CCCC(C#N)(c2ccc(OC)c(OC)c2)C(C)C)cc1OC (stereo not given) | – | 1.36 | –
CC(=O)Nc1ccc(O)cc1 [ACETAMINOPHEN] | – | 0 | –
CC(C)(C)N(NC(=O)c1ccc(Cl)cc1)C(=O)c1ccccc1 [HALOFENOZIDE] | 3.22 | 0 | –
O=[N+]([O-])/C=C1\CCCN1Cc1ccc(Cl)nc1 | – | – | log(1/MLD) [3]: 10.44; log(1/BC) [4]: 6.43
CC(C)(C)N(NC(=O)c1ccccc1)C(=O)c1ccccc1 [RH-5849] | 2.45 | 0 | –
CCOC(=O)C(SP(=S)(OC)OC)c1ccccc1 (stereo not given) [PHENTHOATE] | 3.96 | 0 | logP [5]: 3.96
O=[N+]([O-])/N=c1\sccn1Cc1ccc(Cl)nc1 | – | – | log(1/MLD) [3]: 10.25; log(1/BC) [4]: 5.68
O=[N+]([O-])/N=c1\ccccn1Cc1cnc(Cl)s1 | – | – | log(1/MLD) [3]: 9.74; log(1/BC) [4]: 5.75
Cc1cc(=O)n(-c2ccccc2)n1C [ANTIPYRINE] | – | 0 | –
O=[N+]([O-])/N=C1\NCCCN1Cc1ccc(Cl)nc1 | – | – | log(1/MLD) [3]: 10.12; log(1/BC) [4]: 5.35
C=CCc1ccccc1OCC(O)CNC(C)C (stereo not given) [ALPRENOLOL] | 1.35 | – | logP [5]: 2.89
O=C(O)c1ccccc1O [SALICYLIC ACID] | -0.63 | – | –
CCNc1nc(Cl)nc(NC(C)C)n1 [ATRAZINE] | 2.61 | – | –
O=[N+]([O-])/C=C1\SCCN1Cc1ccc(Cl)nc1 | – | – | log(1/MLD) [3]: 10.37; log(1/BC) [4]: 6.19
O=[N+]([O-])/N=C1\SCCN1Cc1cnc(Cl)s1 | – | – | log(1/MLD) [3]: 8.91; log(1/BC) [4]: 6

SMILES | logD [1] | pKa [2] | further results
CCCN(CCC)c1c([N+](=O)[O-])cc(C(F)(F)F)cc1[N+](=O)[O-] [TRIFLURALIN] | – | – | logP [5]: 5.07
Cc1c(F)c(F)c(COC(=O)[C@@H]2[C@H](/C=C(\Cl)C(F)(F)F)C2(C)C)c(F)c1F [TEFLUTHRIN] | – | – | logP [5]: 6
O=[N+]([O-])/N=c1\[nH]ccn1Cc1cnc(Cl)s1 | – | – | log(1/MLD) [3]: 8.82; log(1/BC) [4]: 4.61
COP(=S)(OC)Oc1ccc([N+](=O)[O-])c(C)c1 [FENITROTHION] | 3.3 | 0 | –
C[C@]12CC[C@H]3[C@@H](CCC4=CC(=O)CC[C@@]43C)[C@@H]1CC[C@@H]2O [TESTOSTERONE] | – | 0 | –
CCCC(=O)Nc1ccc(OCC(O)CNC(C)C)c(C(C)=O)c1 (stereo not given) [ACEBUTOLOL] | – | 2.11 | –
O=[N+]([O-])/C=C1\CCCN1Cc1cnc(Cl)s1 | – | – | log(1/MLD) [3]: 10.06; log(1/BC) [4]: 6.31
CC(C)(C)NCC(O)COc1cccc2c1CC(O)C(O)C2 (stereo not given) [NADOLOL] | -0.88 | 2.37 | –
O=[N+]([O-])Nc1nccn1Cc1ccc(Cl)nc1 [DEHYDROIMIDACLOPRID] | – | – | log(1/MLD) [3]: 8.72; log(1/BC) [4]: 4.31
Cc1cc(C)cc(C(=O)N(NC(=O)c2ccc3c(c2C)CCCO3)C(C)(C)C)c1 [CHROMAFENOZIDE] | 2.7 | – | –
O=[N+]([O-])/N=c1\ccccn1Cc1ccc(Cl)nc1 | – | – | log(1/MLD) [3]: 9.99; log(1/BC) [4]: 5.09
CCC(C)c1ccccc1OC(=O)NC (stereo not given) [FENOBUCARB] | 2.78 | 0 | –
CC(C)Cc1ccc(C(C)C(=O)O)cc1 (stereo not given) [IBUPROFEN] | 1.54 | – | –
CCc1ccc(C(=O)NN(C(=O)c2cc(C)cc(C)c2)C(C)(C)C)cc1 [TEBUFENOZIDE] | – | 0 | –
CCOP(=S)(OCC)Oc1cc(C)nc(C(C)C)n1 [DIMPYLATE] | 3.3 | – | –
CC(=O)Nc1ccc(OCC(O)CNC(C)C)cc1 (stereo not given) [PRACTOLOL] | -0.62 | 2.1 | –
CNC(=C[N+](=O)[O-])NCCSCc1ccc(CN(C)C)o1 [RANITIDINE] | – | 0.88 | logD(app) [1]: -0.32
CC(CCc1ccccc1)NCC(O)c1ccc(O)c(C(N)=O)c1 (stereo not given) [LABETALOL] | 1.68 | 2.1 | –
CC(C)NCC(O)COc1cccc2[nH]ccc12 (stereo not given) [PINDOLOL] | 0.25 | 2.24 | –
COP(=S)(OC)Oc1ccc(SC)c(C)c1 [FENTHION] | 4.09 | 0 | –
O=[N+]([O-])/N=C1\NCCN1Cc1ccc(Cl)nc1 [IMIDACLOPRID] | – | – | log(1/MLD) [3]: 10.15; log(1/BC) [4]: 5.64
C[C@]12C[C@H](O)[C@H]3[C@@H](CCC4=CC(=O)CC[C@@]43C)[C@@H]1CC[C@@H]2C(=O)CO [CORTICOSTERONE] | 1.94 | 0 | –

SMILES | logD [1] | pKa [2] | further results
C=CCOc1ccccc1OCC(O)CNC(C)C (stereo not given) [OXPRENOLOL] | 0.56 | 2.3 | –
CCn1cc(C(=O)O)c(=O)c2cc(F)c(N3CCNCC3)cc21 [NORFLOXACIN] | – | 2.08 | logD(app) [1]: -2.42
C[C@]12C=CC(=O)C=C1CC[C@@H]1[C@@H]2[C@@H](O)C[C@@]2(C)[C@H]1CC[C@]2(O)C(=O)CO [PREDNISOLONE] | – | 0 | –
Clc1cccc(Cl)c1N=C1NCCN1 [CLONIDINE] | 0.93 | 0.75 | –
COCCc1ccc(OCC(O)CNC(C)C)cc1 (stereo not given) [METOPROLOL] | 0.24 | – | –
CC(C)N1C(=O)c2ccccc2NS1(=O)=O [BENTAZON] | – | – | logP [5]: 2.8
CN1CCN(Cc2ccc(Cl)nc2)/C1=N/[N+](=O)[O-] | – | – | log(1/MLD) [3]: 8.62; log(1/BC) [4]: 3.81
O=C(N[C@H](CO)[C@H](O)c1ccc([N+](=O)[O-])cc1)C(Cl)Cl [CHLORAMPHENICOL] | – | 0 | –
O=[N+]([O-])/C=C1\NCCN1Cc1cnc(Cl)s1 | – | – | log(1/MLD) [3]: 10.24; log(1/BC) [4]: 5.73
C[C@]12CCC(=O)C=C1CC[C@@H]1[C@@H]2[C@@H](O)C[C@@]2(C)[C@H]1CC[C@]2(O)C(=O)CO [HYDROCORTISONE] | 1.61 | 0 | –
CC(C(=O)O)c1cccc(C(=O)c2ccccc2)c1 (stereo not given) [KETOPROFEN] | 1.1 | – | –
CN1CCN(Cc2ccc(Cl)nc2)/C1=C/[N+](=O)[O-] | – | – | log(1/MLD) [3]: 8.07; log(1/BC) [4]: 3.84
COc1ccc([C@@H]2Sc3ccccc3N(CCN(C)C)C(=O)[C@@H]2OC(C)=O)cc1 [DILTIAZEM] | 2.29 | 0.76 | –
CCOP(=S)(NC(C)CC)Oc1cc(C)ccc1[N+](=O)[O-] (stereo not given) [BUTAMIFOS] | 4.62 | 0 | –
CCN(CC)C(=O)SCc1ccc(Cl)cc1 [THIOBENCARB] | 3.42 | 0 | –
CN1CCN(CC(=O)N2c3ccccc3C(=O)Nc3cccnc32)CC1 [PIRENZEPINE] | – | 0.7 | logD(app) [1]: -0.37
COc1nn(CSP(=S)(OC)OC)c(=O)s1 [METHIDATHION] | 2.5 | 0 | –
CN1C(C(=O)Nc2ccccn2)=C(O)c2ccccc2S1(=O)=O [PIROXICAM] | 0.49 | – | –
CC(C)c1cc(NC(=O)N(C)C)no1 [ISOURON] | – | – | logP [5]: 1.98
O=[N+]([O-])/N=C1\NCCN1Cc1cnc(Cl)s1 [IMIDACLOTHIZ] | – | – | log(1/MLD) [3]: 9.62; log(1/BC) [4]: 5.97
COP1(=S)OCc2ccccc2O1 (stereo not given) [SALITHION] | 2.67 | 0 | –
COc1cccc(C(=O)NN(C(=O)c2cc(C)cc(C)c2)C(C)(C)C)c1C [METHOXYFENOZIDE] | 3.7 | 0 | –
